Experimental data as given in patent US12012404B2, “Pyrimidoheterocyclic compounds and application thereof” (D3 BIO (WUXI) CO., LTD., priority 2020, dated 2024).

Legend:
[1] = system: human pancreatic cancer Mia PaCa-2 cells; experiment: Pharmacodynamics in vivo in subcutaneously transplanted tumor model of Mia PaCa-2 cells; set-up: species or system Balb/c Nude mice; details: day 22 of administration
Experimental: Assay on pharmacodynamics in vivo in a subcutaneously transplanted tumor model of human pancreatic cancer Mia PaCa-2 cells in Balb/c Nude mice
Cell culture: Human pancreatic cancer Mia PaCa-2 cells (ATCC-CRL-1420) were cultured in monolayer in vitro in DMEM medium with 10% fetal calf serum and 2.5% horse serum in a 37° C., 5% carbon dioxide incubator. Cells were passaged by routine digestion with trypsin-EDTA twice a week. When the cell saturation reached 80%-90% and the cell number met the requirement, the cells were harvested, counted, and resuspended in an appropriate amount of PBS. Matrigel was added in a ratio of 1:1 to obtain a cell suspension with a cell density of 25×10^6 cells/mL.
Cell inoculation: 0.2 mL (5×10^6 cells/mouse) of Mia PaCa-2 cells (plus Matrigel, 1:1 by volume) were subcutaneously inoculated into the right back of each mouse. When the average tumor volume reached 190 mm^3, mice were randomized into groups based on tumor volume and administration was initiated according to the protocol in Table 10.
Tumor diameter was measured with vernier caliper twice a week. The calculation formula of tumor volume was: V=0.5a×b^2, where a and b represent the long and short diameters of the tumor, respectively.
The anti-tumor efficacy of compounds was evaluated by TGI (%) or relative tumor proliferation rate T/C (%). Relative tumor proliferation rate T/C (%)=TRTV/CRTV×100% (TRTV: RTV in a treatment group; CRTV: RTV in a negative control group). The relative tumor volume (RTV) was calculated according to results of tumor measurement, and the calculation formula was RTV=Vt/VO, where VO was average tumor volume measured at the time of administration by group (i.e., DO), and Vt was average tumor volume at the time of a certain measurement. For TRTV and CRTV, data on the same day were used.
TGI (%) reflected tumor growth inhibition rate. TGI (%)=[(1−(average tumor volume at the end of administration of a treatment group−average tumor volume at the beginning of administration of the treatment group))/(average tumor volume at the end of treatment of a vehicle control group−average tumor volume at the beginning of treatment of the vehicle control group)]×100%.

[2] = In vitro stability in liver microsomes, beagle dogs; type: in vitro ADME; details: 0.5 mg/mL
Experimental: Purpose of the assay: Metabolic stabilities of the assay compounds in liver microsomes of CD-1 mice, SD rats, beagle dogs, cynomolgus monkeys, and human were assayed, respectively.
Procedure of the assay: Two 96-well incubation plates were prepared and named T60 incubation plate and NCF60 incubation plate, respectively. 445 μL of microsomal working solutions (liver microsomal protein concentration of 0.56 mg/mL) were added to the T60 incubation plate and the NCF60 incubation plate, respectively, and then the above incubation plates were pre-incubated in a 37° C. water bath for about 10 minutes.
After the pre-incubation, 5 μL of working solutions of the assay sample or the control compound were added to the T60 incubation plate and the NCF60 incubation plate, respectively, and the mixture was mixed well. 50 μL of potassium phosphate buffer was added to each well of the NCF60 incubation plate to initiate the reaction. 180 μL of stop solution (200 ng/mL tolbutamide and 200 ng/mL labetalol in acetonitrile) and 6 uL of NADPH regeneration system working solution were added to the T0 stop plate, and 54 μL of sample was transferred from T60 incubation plate to T0 stop plate (generation of TO sample). The reaction was initiated by adding 44 μL of NADPH regeneration system working solution to each well of the T60 incubation plate. Only 54 μL of microsome working solution, 6 uL of NADPH regeneration system working solution and 180 μL of stop solution were added to the Blank plate. Therefore, in samples of the assay compound or the control compound, the final reaction concentration of compound, testosterone, diclofenac and propafenone was 1 μM, the concentration of liver microsomes was 0.5 mg/mL, and the final reaction concentrations of DMSO and acetonitrile in the reaction system were 0.01% (v/v) and 0.99% (v/v), respectively.
After an appropriate time (e.g., 5, 15, 30, 45 and 60 minutes) of incubation, 180 μL of stop solutions (200 ng/mL tolbutamide and 200 ng/mL labetalol in acetonitrile) were added to the sample wells of each stop plate, respectively. 60 μL of sample was removed from the T60 incubation plate to stop the reaction. All sample plates were shaken well and then centrifuged at 3220×g for 20 minutes. Then 80 μL of supernatant was taken out from each well, and diluted in 240 μL of pure water for liquid chromatography-tandem mass spectrometry analysis. All samples were injected and analyzed by liquid chromatography-tandem mass spectrometry.

plasma protein of human = experiment: Protein binding rate by equilibrium dialysis, human plasma; type: in vitro ADME; details: 2 μM, dialysis 4 hours
Experimental: Purpose of the assay: Protein binding rate of the assay compounds in plasma of CD-1 mice, SD rats, beagle dogs, cynomolgus monkeys and human was determined by equilibrium dialysis.
Procedure of the assay: Plasma samples with a compound concentration of 2 μM were prepared using plasma of the above five species, placed in a 96-well equilibrium dialysis device, and dialyzed with phosphate buffer solution at 37±1° C. for 4 hours. Warfarin was used as the control compound in this assay. The concentrations of the assay compounds in plasma and dialysis buffer were determined by LC-MS/MS method.

[3] = Stability assay in whole blood, beagle dogs; type: in vitro ADME; details: 5 μM, 37° C.
Experimental: Purpose of the assay: Stabilities of the assay compounds in whole blood of CD-1 mice, SD rats, Beagle dogs and cynomolgus monkeys were assayed, respectively.
Procedure of the assay: On the day of the assay or the day before the assay, fresh whole blood from CD-1 mice, SD rats, beagle dogs, and cynomolgus monkeys was collected using anticoagulant EDTA-K2. Prior to the start of the assay, the whole blood was mixed with PBS in 1:1 (v:v) and the mixture was preheated in a 37° C. water bath for 10-20 minutes. […] […] All samples were incubated in a 37° C. water bath. The final incubation concentration of the compound was 5 μM and the final incubation concentration of the control compound was 2 μM. At the end of incubation for each time point, the corresponding incubation plate was removed and 100 μL of ultrapure water was immediately added to the corresponding sample wells, and mixed well. 800 μL of a solution of 200 ng/mL tolbutamide and labetalol in acetonitrile was added to precipitate the protein. The sample plates were sealed and shaken well, and then centrifuged at 3220×g for 20 min. 150 μL of supernatant was taken out and analyzed by LC/MS/MS.

| CLint(liver) ([2]; 1 μM) | T1/2 ([2]; 1 μM) | Compound | Average tumor volume ([1]; 10 mg/kg PO QD) | T/C ([1]; 10 mg/kg PO QD) | TGI ([1]; 10 mg/kg PO QD) | Average tumor volume ([1]; 30 mg/kg PO QD) | T/C ([1]; 30 mg/kg PO QD) | TGI ([1]; 30 mg/kg PO QD) | CLint(mic) ([2]; 1 μM) | Protein unbound rate (plasma protein of human) | Detection of assay compound content within 120 min [3] | CLint scaled at 1 μM ([2]; dog) | half-life at 1 μM ([2]; dog) |
| --- | --- | --- | --- | --- | --- | --- | --- | --- | --- | --- | --- | --- | --- |
| <13.8 mL/min/kg | >145 min | C=C(F)C(=O)N1CCN(c2nc(OCC3CCCN3C)nc3c2COC(c2c(F)c(N)cc(C)c2C(F)(F)F)C3)CC1CC#N.Cl (single isomer, unassigned) [Compound 8B hydrochloride] | 745.84 mm^3 | 36.99% | 66.89% | 227.15 mm^3 | 11.28% | 94.23% | < 9.6 µL/min/mg | 10.6 | 96% | – | – |
| – | – | C=C(F)C(=O)N1CCN(c2nc(OC[C@@]34CCCN3C[C@H](F)C4)nc3c2COC(c2c(F)c(N)cc(C)c2C(F)(F)F)C3)C[C@@H]1CC#N (stereo partly shown) [Compound 17] | 249.87 mm^3 | 12.39% | 93.06% | 124.14 mm^3 | 6.16% | 99.64% | < 9.6 µL/min/mg | 4.8 | 102% | < 13.8 mL/min/kg | > 145 min |
